Test results from publication PMC3748743 (Analytical chemistry, 2013).

Target: BoNT/A (Clostridium botulinum, UniProt P0DPI1)
Type: biochemical

BoNT/A, sequence (P0DPI1 whole entry, looked up): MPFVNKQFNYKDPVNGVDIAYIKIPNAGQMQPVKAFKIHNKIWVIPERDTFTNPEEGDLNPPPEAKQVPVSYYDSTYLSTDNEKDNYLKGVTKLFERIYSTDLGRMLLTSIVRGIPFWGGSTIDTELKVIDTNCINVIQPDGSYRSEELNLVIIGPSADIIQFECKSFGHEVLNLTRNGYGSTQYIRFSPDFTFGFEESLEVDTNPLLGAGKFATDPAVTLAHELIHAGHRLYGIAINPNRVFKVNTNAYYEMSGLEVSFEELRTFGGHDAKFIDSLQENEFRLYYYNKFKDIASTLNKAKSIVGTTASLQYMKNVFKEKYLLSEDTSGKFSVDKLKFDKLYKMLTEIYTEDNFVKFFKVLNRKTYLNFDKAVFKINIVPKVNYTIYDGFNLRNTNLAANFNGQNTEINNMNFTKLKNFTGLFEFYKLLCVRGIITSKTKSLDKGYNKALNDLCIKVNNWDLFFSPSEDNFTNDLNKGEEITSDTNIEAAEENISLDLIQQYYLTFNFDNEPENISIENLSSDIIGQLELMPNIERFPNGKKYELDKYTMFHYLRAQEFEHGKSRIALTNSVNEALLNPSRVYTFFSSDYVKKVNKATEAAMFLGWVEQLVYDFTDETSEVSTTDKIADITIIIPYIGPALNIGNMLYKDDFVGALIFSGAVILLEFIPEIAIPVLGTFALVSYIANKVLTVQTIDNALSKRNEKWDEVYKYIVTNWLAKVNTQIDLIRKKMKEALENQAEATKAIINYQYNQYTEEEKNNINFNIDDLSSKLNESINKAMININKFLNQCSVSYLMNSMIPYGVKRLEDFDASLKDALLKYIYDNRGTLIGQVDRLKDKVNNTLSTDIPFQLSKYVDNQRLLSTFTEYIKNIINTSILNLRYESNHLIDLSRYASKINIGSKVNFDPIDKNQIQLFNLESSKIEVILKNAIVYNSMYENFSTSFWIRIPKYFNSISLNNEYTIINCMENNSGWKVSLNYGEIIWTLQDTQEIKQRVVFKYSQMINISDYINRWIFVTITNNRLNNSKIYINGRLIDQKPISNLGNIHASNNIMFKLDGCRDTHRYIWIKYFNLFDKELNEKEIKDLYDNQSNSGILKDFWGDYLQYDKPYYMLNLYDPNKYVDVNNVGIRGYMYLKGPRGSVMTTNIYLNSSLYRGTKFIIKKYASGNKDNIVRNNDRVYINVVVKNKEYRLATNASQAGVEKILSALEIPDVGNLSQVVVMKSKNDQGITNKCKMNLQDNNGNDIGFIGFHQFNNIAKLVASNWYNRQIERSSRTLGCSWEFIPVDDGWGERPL

TPEN
Effect on fluorescent signal of BoNT/A ALISSA: significant suppression of fluorescent signal
